Source: DBAASP
In brackets after ≈: the same amount, converted by molar mass.

What was measured:
Assay in all cases: ≥ marks a high value that may be exact or a test limit, other limits are often not marked, values filed in µg/mL are converted to µM
Escherichia coli 55B5 = tested on: Escherichia coli 55B5
Escherichia coli UB1005 = tested on: Escherichia coli UB1005
Pseudomonas aeruginosa = tested on: Pseudomonas aeruginosa
Salmonella typhimurium = tested on: Salmonella typhimurium
Staphylococcus aureus = tested on: Staphylococcus aureus
[1] = tested on: Bacillus licheniformis X39
[2] = tested on: Escherichia coli ATCC 25922
[3] = tested on: Pseudomonas aeruginosa 1.50
[4] = tested on: Psychrobacter faecalis X29
[5] = tested on: Rhodococcus rhodochrous X15
Serratia rubidaea X01 = tested on: Serratia rubidaea X01
[6] = tested on: Staphylococcus aureus ATCC 2592
[7] = tested on: Staphylococcus carnosus KHS
[8] = tested on: Acinetobacter calcoaceticus
Bacillus cereus = tested on: Bacillus cereus
Bacillus pumilus = tested on: Bacillus pumilus
[9] = tested on: Candida albicans ATCC 2002
Shigella dysenteriae = tested on: Shigella dysenteriae
[10] = tested on: Bacillus subtilis ATCC 6633
[11] = tested on: Escherichia coli DH5alpha
[12] = tested on: Escherichia coli DSM 1103
[13] = tested on: Kocuria rhizophila DSM 348
[14] = tested on: Micrococcus luteus DSM 1790
[15] = tested on: Staphylococcus aureus ATCC 25923
[16] = tested on: Staphylococcus aureus DSM 1104
Escherichia coli 23A = tested on: Escherichia coli 23A
Escherichia coli 27A = tested on: Escherichia coli 27A
[17] = tested on: Pseudomonas aeruginosa 3A
[18] = tested on: Pseudomonas aeruginosa 7A
[19] = tested on: Staphylococcus aureus 15A
Staphylococcus aureus 6A = tested on: Staphylococcus aureus 6A
Bacillus subtilis = tested on: Bacillus subtilis
Candida glabrata 090902 = tested on: Candida glabrata 090902
[20] = tested on: Nocardia asteroides 201118
[21] = tested on: Staphylococcus aureus ATCC 43300

## CC[C@H](C)[C@H](NC(=O)[C@H](C)N)C(=O)N[C@@H](Cc1cnc[nH]1)C(=O)N[C@@H](CCCCN)C(=O)N[C@@H](CC(C)C)C(=O)N[C@@H](C)C(=O)N[C@@H](Cc1cnc[nH]1)C(=O)N[C@@H](CCCCN)C(=O)N[C@@H](CC(C)C)C(=O)N[C@@H](CC(C)C)C(=O)N[C@@H](CCCCN)C(=O)N[C@@H](CCCCN)C(=O)N[C@@H](CC(C)C)C(=O)N[C@@H](CC(C)C)C(=O)N[C@@H](CCCN=C(N)N)C(=O)N[C@@H](C)C(=O)N[C@H](C(=O)N[C@@H](CCCCN)C(=O)N[C@@H](CCCCN)C(=O)N[C@@H](CC(C)C)C(=O)N[C@@H](C)C(=O)N[C@@H](CC(N)=O)C(=O)O)C(C)C [AIHKLAHKLLKKLLRAVKKLAN]
Escherichia coli 55B5
  MIC: 2.5 µM (≈ 6.27 µg/mL)
Escherichia coli UB1005
  MIC: 3.1 µM (≈ 7.77 µg/mL)
Pseudomonas aeruginosa
  MIC: 4.5 µM (≈ 11.3 µg/mL)
Salmonella typhimurium
  MIC: 6 µM (≈ 15 µg/mL)
Staphylococcus aureus
  MIC: 30 µM (≈ 75.2 µg/mL)

## CSCC[C@H](NC(=O)CNC(=O)[C@H](C)NC(=O)[C@H](CCC(=O)O)NC(=O)[C@H](CCCCN)NC(=O)[C@H](C)NC(=O)[C@@H](NC(=O)CNC(=O)[C@H](CCCCN)NC(=O)[C@H](CC(C)C)NC(=O)[C@H](CC(C)C)NC(=O)[C@H](CC(=O)O)NC(=O)CNC(=O)[C@H](Cc1ccccc1)NC(=O)[C@H](C)NC(=O)CN)C(C)C)C(=O)N[C@@H](CCCCN)C(=O)N[C@@H](CC(C)C)C(=O)N[C@@H](CC(C)C)C(=O)N[C@@H](CC(N)=O)C(=O)N[C@@H](CCSC)C(=O)N[C@@H](C)C(=O)N[C@@H](CCC(N)=O)C(=O)N[C@H]1CSSC[C@@H](C(=O)O)NC(=O)[C@H](CCCCN)NC(=O)CNC(=O)[C@H](CO)NC(=O)[C@H](CC(C)C)NC(=O)[C@H](CCCCN)NC1=O [GAFGDLLKGVAKEAGMKLLNMAQCKLSGKC]
[1]
  MIC: 8 µM (≈ 24.6 µg/mL)
[2]
  MIC: 32.5 µM (≈ 100 µg/mL)
[3]
  MIC: ≥ 65 µM
[4]
  MIC: 0.5 µM (≈ 1.54 µg/mL)
[5]
  MIC: 0.5 µM (≈ 1.54 µg/mL)
Serratia rubidaea X01
  MIC: ≥ 130 µM
[6]
  MIC: 2 µM (≈ 6.16 µg/mL)
[7]
  MIC: 2 µM (≈ 6.16 µg/mL)

## CC[C@H](C)[C@H](NC(=O)CN)C(=O)N[C@@H](Cc1ccccc1)C(=O)N[C@@H](C)C(=O)N[C@@H](CC(C)C)C(=O)N[C@H](C(=O)N[C@@H](CCCCN)C(=O)N[C@H](C(=O)N[C@@H](C)C(=O)N[C@@H](C)C(=O)N[C@@H](CCCCN)C(=O)N[C@@H](Cc1ccccc1)C(=O)N[C@H](C(=O)NCC(=O)N[C@@H](CCCCN)C(=O)N[C@@H](CC(N)=O)C(=O)N[C@@H](CC(C)C)C(=O)N[C@@H](CC(C)C)C(=O)N[C@@H](CCCCN)C(=O)N[C@@H](CCC(N)=O)C(=O)N[C@@H](C)C(=O)NCC(=O)N[C@@H](CCCCN)C(=O)N[C@@H](C)C(=O)NCC(=O)N[C@@H](CC(C)C)C(=O)N[C@@H](CCC(=O)O)C(=O)N[C@@H](Cc1cnc[nH]1)C(=O)N[C@@H](CC(C)C)C(=O)N[C@@H](C)C(=O)N[C@H]1CSSC[C@@H](C(=O)O)NC(=O)[C@H](CCC(N)=O)NC(=O)[C@H](CC(N)=O)NC(=O)[C@H](CC(N)=O)NC(=O)[C@H](C)NC(=O)[C@H](CCCCN)NC1=O)C(C)C)[C@@H](C)O)[C@@H](C)CC [GIFALIKTAAKFVGKNLLKQAGKAGLEHLACKANNQC]
[8]
  MIC: 6.46 µM (≈ 25 µg/mL)
Bacillus cereus
  MIC: 1.94 µM (≈ 7.5 µg/mL)
Bacillus pumilus
  MIC: 0.646 µM (≈ 2.5 µg/mL)
[9]
  MIC: 0.646 µM (≈ 2.5 µg/mL)
[2]
  MIC: 3.23 µM (≈ 12.5 µg/mL)
Pseudomonas aeruginosa
  MIC: 12.9 µM (≈ 50 µg/mL)
Shigella dysenteriae
  MIC: 1.94 µM (≈ 7.5 µg/mL)
[6]
  MIC: 0.646 µM (≈ 2.5 µg/mL)

## CC[C@H](C)[C@H](NC(=O)[C@H](C)NC(=O)CNC(=O)[C@H](C)NC(=O)[C@H](CCCCN)NC(=O)[C@H](CO)NC(=O)[C@H](C)NC(=O)[C@H](CCSC)NC(=O)CN)C(=O)N[C@@H](C)C(=O)NCC(=O)N[C@@H](CCCCN)C(=O)N[C@H](C(=O)N[C@@H](C)C(=O)N[C@@H](CCCCN)C(=O)N[C@H](C(=O)N[C@@H](C)C(=O)N[C@@H](CC(C)C)C(=O)N[C@@H](CCCCN)C(=O)N[C@@H](C)C(=O)N[C@@H](CC(C)C)C(=O)O)C(C)C)[C@@H](C)CC [GMASKAGAIAGKIAKVALKAL]
[10]
  MIC: 16.2 µM (≈ 32 µg/mL)
[2]
  MIC: 0.0305 µM (≈ 0.0601 µg/mL)
[11]
  MIC: ≥ 65 µM
[12]
  MIC: ≥ 65 µM
[13]
  MIC: ≥ 65 µM
[14]
  MIC: ≥ 65 µM
[15]
  MIC: 5.08 µM (≈ 10 µg/mL)
[16]
  MIC: ≥ 65 µM

## CC[C@H](C)[C@H](N)C(=O)N[C@@H](CC(N)=O)C(=O)N[C@@H](CCSC)C(=O)N[C@@H](CCCCN)C(=O)N[C@@H](C)C(=O)N[C@@H](CO)C(=O)N[C@@H](C)C(=O)N[C@@H](C)C(=O)N[C@H](C(=O)N[C@@H](C)C(=O)N[C@@H](CCCCN)C(=O)N[C@@H](CCCCN)C(=O)N[C@@H](CC(C)C)C(=O)N[C@@H](CC(C)C)C(=O)O)C(C)C [INMKASAAVAKKLL]
[9]
  MIC: 10.3 µM (≈ 15 µg/mL)
Escherichia coli 23A
  MIC: 10.3 µM (≈ 15 µg/mL)
Escherichia coli 27A
  MIC: ≥ 41.2 µM
[2]
  MIC: 10.3 µM (≈ 15 µg/mL)
[17]
  MIC: 10.3 µM (≈ 15 µg/mL)
[18]
  MIC: ≥ 82.3 µM
[19]
  MIC: 2.57 µM (≈ 3.75 µg/mL)
Staphylococcus aureus 6A
  MIC: 1.3 µM (≈ 1.9 µg/mL)
[6]
  MIC: 2.57 µM (≈ 3.75 µg/mL)

## CC[C@H](C)[C@H](NC(=O)[C@H](Cc1ccccc1)NC(=O)CNC(=O)[C@H](CCCCN)NC(=O)CNC(=O)[C@H](C)NC(=O)[C@H](CC(N)=O)NC(=O)[C@H](CCCCN)NC(=O)[C@@H](NC(=O)[C@@H](NC(=O)[C@H](CCC(=O)O)NC(=O)[C@H](Cc1c[nH]c2ccccc12)NC(=O)[C@H](CC(C)C)NC(=O)[C@@H](N)CO)[C@@H](C)O)[C@@H](C)CC)C(=O)N[C@@H](CC(C)C)C(=O)N[C@@H](CC(N)=O)C(=O)N[C@H](C(=O)N[C@@H](CC(C)C)C(=O)N[C@@H](CC(=O)O)C(=O)N[C@@H](CCCCN)C(=O)N[C@H](C(=O)N[C@@H](CCCN=C(N)N)C(=O)N[C@H]1CSSC[C@@H](C(=O)N[C@@H](CCCCN)C(=O)N[C@H](C(=O)O)[C@@H](C)O)NC(=O)CNC(=O)CNC(=O)[C@H](C)NC(=O)[C@H](C(C)C)NC(=O)[C@H](CCCCN)NC1=O)[C@@H](C)CC)[C@@H](C)CC [SLWETIKNAGKGFILNILDKIRCKVAGGCKT]
Bacillus subtilis
  MIC: 2.78 µM (≈ 9.37 µg/mL)
[9]
  MIC: 4.44 µM (≈ 15 µg/mL)
Candida glabrata 090902
  MIC: ≥ 150 µM
[2]
  MIC: 75 µM (≈ 253 µg/mL)
[20]
  MIC: 4.7 µM (≈ 15.9 µg/mL)
[21]
  MIC: 2.78 µM (≈ 9.37 µg/mL)
